Assay results as given in patent US8975415B2, “Chromane compounds” (CoMentis, Inc., priority 2012, dated 2015).
Structures can show the parent of a compound that is named as a salt. Where two headings read alike, the source gives them in different places.

Tests used:
hERG potassium channel = hERG potassium channel (Homo sapiens (Human), UniProt Q12809); assay: hERG inhibition, automated planar patch-clamp in hERG-expressing CHO cells; conditions: for selectivity ratio: human, CHO-K1 cells stably expressing hERG, pH 7.4
Sequence of hERG potassium channel (Q12809 whole entry): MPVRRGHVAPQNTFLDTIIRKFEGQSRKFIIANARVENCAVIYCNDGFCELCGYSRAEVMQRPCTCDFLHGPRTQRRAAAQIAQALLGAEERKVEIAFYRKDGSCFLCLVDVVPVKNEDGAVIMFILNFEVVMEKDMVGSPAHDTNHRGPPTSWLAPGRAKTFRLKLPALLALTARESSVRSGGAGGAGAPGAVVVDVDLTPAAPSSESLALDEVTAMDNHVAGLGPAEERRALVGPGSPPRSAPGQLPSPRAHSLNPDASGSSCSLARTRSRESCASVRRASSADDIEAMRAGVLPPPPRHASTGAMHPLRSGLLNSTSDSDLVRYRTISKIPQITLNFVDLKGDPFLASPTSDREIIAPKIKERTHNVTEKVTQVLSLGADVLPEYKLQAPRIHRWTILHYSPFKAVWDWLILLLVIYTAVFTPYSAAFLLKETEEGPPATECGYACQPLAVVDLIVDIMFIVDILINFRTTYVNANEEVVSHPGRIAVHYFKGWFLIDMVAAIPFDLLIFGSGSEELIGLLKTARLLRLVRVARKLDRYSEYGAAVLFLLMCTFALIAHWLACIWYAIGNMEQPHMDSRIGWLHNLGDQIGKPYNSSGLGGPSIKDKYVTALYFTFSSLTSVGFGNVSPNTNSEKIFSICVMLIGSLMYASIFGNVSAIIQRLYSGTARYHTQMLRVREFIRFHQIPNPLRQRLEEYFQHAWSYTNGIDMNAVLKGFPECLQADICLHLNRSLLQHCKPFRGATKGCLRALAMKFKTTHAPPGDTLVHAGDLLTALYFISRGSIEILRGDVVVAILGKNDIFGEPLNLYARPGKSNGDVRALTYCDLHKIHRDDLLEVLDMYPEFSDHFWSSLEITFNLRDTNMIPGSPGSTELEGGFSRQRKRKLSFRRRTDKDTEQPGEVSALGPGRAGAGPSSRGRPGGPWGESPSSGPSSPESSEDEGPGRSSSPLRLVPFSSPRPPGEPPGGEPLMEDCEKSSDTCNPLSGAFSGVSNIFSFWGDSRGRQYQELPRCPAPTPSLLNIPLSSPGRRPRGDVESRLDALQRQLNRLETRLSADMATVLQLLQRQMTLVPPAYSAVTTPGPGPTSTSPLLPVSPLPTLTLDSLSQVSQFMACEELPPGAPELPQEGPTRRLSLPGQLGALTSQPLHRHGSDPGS

BACE1 [1] = target: T1, BACE1 (Homo sapiens (Human), UniProt P56817); assay: Measurement of BACE1 inhibition by fluorescence resonance energy transfer (FRET), MCA substrate; conditions: for IC50: read-out: Test Example 1 IC50, MCA-SEVNLDAEFK(DNP)-NH2 substrate, pH 4.4
Target sequence in this assay (P56817 75-416): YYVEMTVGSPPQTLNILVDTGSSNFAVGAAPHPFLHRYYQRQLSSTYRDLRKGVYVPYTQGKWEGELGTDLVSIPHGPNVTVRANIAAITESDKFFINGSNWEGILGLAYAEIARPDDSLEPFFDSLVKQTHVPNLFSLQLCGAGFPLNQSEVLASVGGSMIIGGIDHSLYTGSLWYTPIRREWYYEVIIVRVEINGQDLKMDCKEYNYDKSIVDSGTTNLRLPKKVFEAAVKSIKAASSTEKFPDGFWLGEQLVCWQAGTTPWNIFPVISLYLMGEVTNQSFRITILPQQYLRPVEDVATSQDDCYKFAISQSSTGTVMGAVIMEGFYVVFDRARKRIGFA

BACE1 [2] = target: T1, BACE1; assay: Measurement of Aβ production inhibition in cell (SK-N-BE(2) neuroblastoma cells, Aβ40 ELISA); conditions: Test Example 3 IC50, Aβ40 production, SK-N-BE(2) cells, 6 hours
Target sequence in this assay (P56817 46-501): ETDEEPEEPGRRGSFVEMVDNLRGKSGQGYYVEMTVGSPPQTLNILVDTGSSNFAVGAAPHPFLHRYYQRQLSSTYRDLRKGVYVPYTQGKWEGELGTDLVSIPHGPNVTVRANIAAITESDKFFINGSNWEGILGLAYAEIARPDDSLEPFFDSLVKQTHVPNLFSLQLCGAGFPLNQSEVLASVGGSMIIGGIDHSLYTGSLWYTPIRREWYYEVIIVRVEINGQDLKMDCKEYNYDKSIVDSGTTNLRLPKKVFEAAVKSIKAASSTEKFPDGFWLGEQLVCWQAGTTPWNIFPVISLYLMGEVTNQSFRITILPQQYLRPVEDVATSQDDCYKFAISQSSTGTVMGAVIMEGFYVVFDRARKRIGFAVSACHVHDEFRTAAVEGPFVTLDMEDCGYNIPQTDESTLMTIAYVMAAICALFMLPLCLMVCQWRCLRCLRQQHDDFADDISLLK

[3] = read-out: Test Example 5 hERG IC50, whole-cell patch clamp, room temperature
[4] = read-out: Test Example 1 BACE1 MCA Ki, FRET, MCA substrate

| SMILES | IC50 (hERG potassium channel) | IC50 (hERG potassium channel; [3]) | Ki (BACE1 [1]) | selectivity ratio (hERG potassium channel) | IC50 (BACE1 [2]) | IC50 (BACE1 [1]; FRET) | Ki (BACE1 [1]; [4]) |
| --- | --- | --- | --- | --- | --- | --- | --- |
| C[C@H]1Oc2ccc(-c3cccnc3F)cc2[C@@]2(COC(N)=N2)C12COC2 (racemic) [RP 77] | > 10000 nM |  |  |  |  |  |  |
| C[C@@H]1Oc2ccc(-c3cccnc3F)cc2[C@@]2(COC(N)=N2)C12COC2 (racemic) [RP 79] |  | > 10000 nM |  |  |  |  |  |
| CC1(C)Cc2ccc(NC(=O)c3ccc(Cl)cn3)cc2C2(COC(N)=N2)C1 (racemic) [WO2011/123674 Example 89, reference compound] | 440 nM |  | 241 nM | 1.8 |  |  |  |
| Cc1cnc(C(=O)Nc2ccc3c(c2)C2(COC(N)=N2)CC(C)(C)C3)cn1 (racemic) [WO2011/123674 Example 98, reference compound] | 9460 nM |  | 4090 nM | 2.3 |  |  |  |
| NC1=NC2(CO1)c1cc(Br)ccc1OC(Cc1ccccc1)C21COC1 (single isomer, unassigned) [RP 15a] |  | > 10000 nM |  |  | 1100 nM | 1720 nM |  |
| NC1=NC2(CO1)c1cc(Br)ccc1OC(Cc1ccccc1)C21COC1 (single isomer, unassigned) [RP 15b] |  | 7930 nM |  |  | 440 nM | 1010 nM |  |
| NC1=NC2(CO1)c1cc(Br)ccc1OC(CC1CC1)C21COC1 (single isomer, unassigned) [RP 16a] |  | > 10000 nM |  |  |  | 9540 nM |  |
| NC1=NC2(CO1)c1cc(Br)ccc1OC(CC1CC1)C21COC1 (single isomer, unassigned) [RP 16b] |  | > 10000 nM |  |  | 4800 nM | 4570 nM |  |
| CC#Cc1cncc(-c2ccc3c(c2)C2(COC(N)=N2)C2(CC2)CO3)c1 (single isomer, unassigned) [RP 52a, 6′-[5-(prop-1-yn-1-yl)pyridin-3-yl]dispiro[cyclopropane-1,3′-chromene-4′,4″-[1,3]oxazol]-2″-amine] |  | 4830 nM |  |  | 75 nM | 161 nM |  |
| CC1(C)Oc2ccc(NC(=O)c3ccc(F)cn3)cc2[C@@]2(COC(N)=N2)C12CC2 [Example 222] |  | > 10000 nM |  | > 109 | 0.62 nM | 138 nM | 91.5 nM |
| COc1cnc(C(=O)Nc2ccc3c(c2)C2(COC(N)=N2)C2(COC2)C(C)(C)O3)cn1 (stereo not drawn) [Example 227] |  | > 10000 nM |  |  |  |  |  |
| COCc1cnn(-c2ccc3c(c2)C2(COC(N)=N2)C2(COC2)C2(CCC2)O3)c1 (stereo not drawn) [RP 4] |  | > 10000 nM |  |  | 7200 nM | 12600 nM |  |
| NC1=NC2(CO1)c1cc(-c3cncnc3)ccc1OC1(CCC1)C21COC1 (stereo not drawn) [RP 5] |  | > 10000 nM |  |  | 590 nM | 1560 nM |  |
| CC1(C)Oc2ccc(Br)cc2C2(COC(N)=N2)C12COC2 (stereo not drawn) [RP 6, 6′-bromo-2′,2′-dimethyldispiro[1,3-oxazole-4,4′-chromene-3′,3″-oxetan]-2-amine] |  | > 10000 nM |  |  | 3900 nM | 11700 nM |  |
| NC1=NC2(CO1)c1cc(Br)ccc1OC1(CCCC1)C21COC1 (stereo not drawn) [RP 10] |  | > 10000 nM |  |  |  | 7210 nM |  |
| NC1=NC2(CO1)c1cc(-c3cc(Cl)cnc3F)ccc1OCC21COC1 (stereo not drawn) [RP 34] |  | > 10000 nM |  |  | 260 nM | 1240 nM |  |
| CC1(C)Oc2ccc(Br)cc2C2(CSC(N)=N2)C12COC2 (stereo not drawn) [RP 42] |  | > 10000 nM |  |  | 5900 nM | 16100 nM |  |
| NC1=NC2(CO1)c1cc(Nc3ncccc3Cl)ccc1OCC21COC1 (stereo not drawn) [RP 43, 6′-(3-chloropyridin-2-yl)aminodispiro[1,3-oxazole-4,4′-chromene-3′,3″-oxetane]-2-amine] |  | > 10000 nM |  |  | 1400 nM | 1960 nM |  |
| COc1cccnc1Nc1ccc2c(c1)C1(COC(N)=N1)C1(COC1)C1(CCC1)O2 (stereo not drawn) [RP 45] |  | > 10000 nM |  |  | 57 nM | 1040 nM |  |
| CC(C)Cc1ccc2c(c1)C1(COC(N)=N1)C1(COC1)C1(CCC1)O2 (stereo not drawn) [RP 46, 6′-isobutyltrispiro[cyclobutane-1,2′-chromene-4′,4″-[1,3]oxazole-3′,3′″-oxetan]-2″-amine] |  | > 10000 nM |  |  | 1400 nM | 8940 nM |  |
| CC1(C)Oc2ccc(-c3cncnc3)cc2C2(CSC(N)=N2)C12COC2 (stereo not drawn) [RP 54, 2′,2′-dimethyl-6′-(pyrimidin-5-yl)dispiro[oxetane-3,3′-chromene-4′,4″-[1,3]thiazol]-2″-amine hydrochloride] |  | > 10000 nM |  |  | 79 nM | 406 nM |  |
| NC1=NC2(CO1)c1cc(-c3cncc(OCC(F)F)c3)ccc1OCC21CC1 (stereo not drawn) [RP 59] |  | 6900 nM |  |  | 76 nM | 1110 nM |  |
| NC1=NC2(CO1)c1cc(-c3cnc4[nH]ccc4c3)ccc1OCC21CC1 (stereo not drawn) [RP 61, 6′-(1H-pyrrolo[2,3-b]pyridin-5-yl)dispiro[cyclopropane-1,3′-chromene-4′,4″-[1,3]oxazol]-2″-amine] |  | 9220 nM |  |  | 350 nM |  |  |
| CCc1cncc(-c2ccc3c(c2)C2(COC(N)=N2)C2(CC2)CO3)c1 (stereo not drawn) [RP 63] |  | 4480 nM |  |  | 3300 nM | 7900 nM |  |
| CC#Cc1cncc(-c2ccc3c(c2)C2(CSC(N)=N2)C2(COC2)CO3)c1 (stereo not drawn) [RP 68] |  | 6050 nM |  |  | 500 nM | 345 nM |  |
| NC1=NC2(CO1)c1cc(-c3cccnc3F)ccc1OC1(CCC1)C21COC1 (stereo not drawn) [RP 71] |  | > 10000 nM |  |  | 110 nM | 1080 nM |  |

| SMILES | IC50 (hERG potassium channel) | IC50 (hERG potassium channel; [3]) | Ki (BACE1 [1]) | selectivity ratio (hERG potassium channel) | IC50 (BACE1 [2]) | IC50 (BACE1 [1]; FRET) | Ki (BACE1 [1]; [4]) |
| --- | --- | --- | --- | --- | --- | --- | --- |
| Cc1cncc(-c2ccc3c(c2)C2(COC(N)=N2)C2(COC2)C2(CCC2)O3)c1 (stereo not drawn) [RP 75, 6′-(5-methylpyridin-3-yl)trispiro[cyclobutane-1,2′-chromene-4′,4″-[1,3]oxazole-3′,3′″-oxetan]-2″-amine] |  | > 10000 nM |  |  | 1100 nM | 3670 nM |  |
| Cc1cnnc(-c2ccc3c(c2)C2(COC(N)=N2)C2(COC2)C2(CCC2)O3)c1 (stereo not drawn) [RP 76] |  | > 10000 nM |  |  |  | 13400 nM |  |
| CCC1Oc2ccc(-c3cncnc3)cc2C2(COC(N)=N2)C12COC2 (stereo not drawn) [RP 84] |  | > 10000 nM |  |  | 410 nM | 735 nM |  |
| NC1=NC2(CO1)c1cc(-c3cncnc3)ccc1OC1(CCCC1)C21COC1 (stereo not drawn) [RP 85] |  | > 10000 nM |  |  | 77 nM | 319 nM |  |
| CC#Cc1cncc(-c2ccc3c(c2)C2(COC(N)=N2)C2(COC2)C(CC)O3)c1 (stereo not drawn) [RP 86] |  | 7940 nM |  |  | 58 nM | 143 nM | 107 nM |
| NC1=NC2(CO1)c1cc(-c3cncnc3)ccc1OC(C1CC1)C21COC1 (stereo not drawn) [RP 88] |  | > 10000 nM |  |  | 1400 nM | 2510 nM |  |
| CC(C)CC1Oc2ccc(-c3cncnc3)cc2C2(COC(N)=N2)C12COC2 (stereo not drawn) [RP 90] |  | > 10000 nM |  |  |  | 901 nM |  |
| CCCC1Oc2ccc(-c3cncnc3)cc2C2(COC(N)=N2)C12COC2 (stereo not drawn) [RP 91] |  | > 10000 nM |  |  | 340 nM | 656 nM |  |
| CC#Cc1cncc(-c2ccc3c(c2)C2(COC(N)=N2)C2(COC2)C(CCC)O3)c1 (stereo not drawn) [RP 92] |  | 5340 nM |  |  | 37 nM | 124 nM | 87.9 nM |
| NC1=NC2(CO1)c1cc(-c3cncc(C(F)(F)F)c3)ccc1OC1(CCC1)C21COC1 (stereo not drawn) [RP 99] |  | > 10000 nM |  |  | 1900 nM | 2970 nM |  |
| NC1=NC2(CO1)c1cc(-c3cncnc3)ccc1OCC21CC1 (stereo not drawn) [RP 100] |  | > 10000 nM |  |  | 250 nM | 2620 nM |  |
| NC1=NC2(CO1)c1cc(-c3cncnc3)ccc1OCC21CCC1 (stereo not drawn) [RP 101] |  | 5280 nM |  |  |  | 7650 nM |  |
| NC1=NC2(CO1)c1cc(-c3cncnc3)c(F)cc1OCC21CC1 (stereo not drawn) [RP 102] |  | > 10000 nM |  |  | 240 nM | 1610 nM |  |
| COc1cncc(-c2ccc3c(c2)C2(COC(N)=N2)C2(CC2)CO3)c1 (stereo not drawn) [RP 105] |  | 7900 nM |  |  | 340 nM | 2940 nM |  |
| CCOc1cncc(-c2ccc3c(c2)C2(COC(N)=N2)C2(CC2)CO3)c1 (stereo not drawn) [RP 106] |  | 5750 nM |  |  | 160 nM | 1830 nM |  |
| CC#Cc1cncc(-c2ccc3c(c2)C2(COC(N)=N2)C2(CC2)CO3)c1 (stereo not drawn) [RP 111] |  | 1980 nM |  |  | 140 nM | 287 nM | 252 nM |
| Cc1cnc(F)c(-c2ccc3c(c2)C2(COC(N)=N2)C2(COC2)C2(CCC2)O3)c1 (stereo not drawn) [RP 116, 6′-(2-fluoro-5-methylpyridin-3-yl)trispiro[cyclobutane-1,2′-chromene-4′,4″-[1,3]oxazole-3′,3′″-oxetan]-2″-amine] |  | > 10000 nM |  |  |  |  |  |
| NC1=NC2(CO1)c1cc(-c3cncc(C(F)F)c3)ccc1OC1(CCC1)C21COC1 (stereo not drawn) [RP 118] |  | > 10000 nM |  |  | 990 nM | 1810 nM |  |
| Cc1cc(C#N)cnc1C(=O)Nc1ccc2c(c1)C1(COC(N)=N1)C1(CC1)CO2 (stereo not drawn) [RP 191] |  | > 10000 nM |  |  |  |  |  |
| N#Cc1cnc(C(=O)Nc2ccc3c(c2)C2(COC(N)=N2)C2(CC2)CO3)c(Cl)c1 (stereo not drawn) [RP 192] |  | > 10000 nM |  |  |  | 318 nM | 280 nM |
| NC1=NC2(c3cc(-c4cncnc4)ccc3OCC23CC3)C(F)(F)CS1 (stereo not drawn) [RP 198, 5″,5″-difluoro-6′-(pyrimidin-5-yl)-5″,6″-dihydrodispiro[cyclopropane-1,3′-chromene-4′,4″-[1,3]thiazin]-2″-amine] |  | > 1000 nM |  |  |  | 14900 nM |  |
| NC1=NC2(c3cc(-c4cncnc4)ccc3OCC23CC3)c2cccc(F)c21 (stereo not drawn) [RP 199] |  | 4250 nM |  |  | 240 nM | 736 nM |  |
| NC1=NC2(CO1)c1cc(-c3cncnc3)ccc1OC(Cc1ccccc1)C21COC1 (stereo not drawn) [RP 200] |  | > 10000 nM |  |  | 26 nM | 128 nM | 92.1 nM |
| CC#Cc1cncc(-c2ccc3c(c2)C2(COC(N)=N2)C2(COC2)C(CC2CC2)O3)c1 (stereo not drawn) [RP 205] |  |  |  |  | 22 nM | 126 nM | 82.5 nM |
| NC1=NC2(c3cc(-c4cncnc4)ccc3OCC23CC3)C(F)(F)CO1 (stereo not drawn) [RP 206] |  |  |  |  | > 30000 nM | 4910 nM |  |
